The results in this text go back to ChEMBL document CHEMBL5385851, “Natural quinazolinones: From a treasure house to promising anticancer leads” (Eur J Med Chem, 2023).

The term IC50 denotes the concentration that inhibits the measured activity by half. For orientation: GI50 means the concentration that inhibits growth by half.

The test system of test [1] is A549. The experiment in a line: Cytotoxicity against human A549 cells assessed as reduction in cell viability incubated for 72 hrs by MTT assay. The test is classed as functional, cell-based. Conditions: A549, 72 h. In general terms: Tetrazolium assays rely on reduction of a dye to a coloured formazan, in cell work by metabolically active cells.
The test system of test [2] is NCI-N87. The experiment in a line: Cytotoxicity against human NCI-N87 cells. The test is classed as functional, cell-based.
The test system of a further test is PC-3. The test can be described thus: Cytotoxicity against human PC-3 cells assessed as inhibition of cell growth. The test is classed as functional, cell-based.
The subject of test [3] is HL-60. The experiment in a line: Cytotoxicity against human HL-60 cells assessed as cell growth inhibition by MTT assay. The test is classed as functional.
The subject of another test is 786-0. The test can be described thus: Cytotoxicity against human 786-0 cells assessed as cell growth inhibition. The test is classed as functional.
Test [4] has as its system A549. The test can be described thus: Cytotoxicity against human A549 cells assessed as cell growth inhibition. The test is classed as functional.
Test [5] deals with MGC-803. The test can be described thus: Antiproliferative activity against human MGC-803 cells assessed as reduction in cell viability by MTT assay. The test is classed as functional, cell-based.
For test [6], the system named is U-251. The test can be described thus: Growth inhibition of human U-251 cells incubated for 48 hrs by SRB assay. The test is classed as functional. Background: In SRB staining, fixed cells bind dye roughly in proportion to their protein.
A further test has as its system ACHN. The experiment in a line: Growth inhibition of human ACHN cells incubated for 48 hrs by SRB assay. The test is classed as functional.
The next test deals with OVCAR-4. The test can be described thus: Cytotoxicity against human OVCAR-4 cells assessed as cell growth inhibition. The test is classed as functional.
The test system of test [7] is DU-145. The test can be described thus: Growth inhibition of human DU-145 cells incubated for 24 hrs by sulforhodamine B assay. The test is classed as functional.
Test [8] relates to U-251. The test can be described thus: Cytotoxicity against human U-251 cells assessed as cell growth inhibition. The test is classed as functional.
Test [9] concerns DU-145. The test can be described thus: Cytotoxicity against human DU-145 cells assessed as cell growth inhibition. The test is classed as functional.
The test system of test [10] is HL-60. The test can be described thus: Antiproliferative activity against human HL-60 cells assessed as cell growth inhibition incubated for 72 hrs by MTT assay. The test is classed as functional, cell-based. To be noted: HL-60, 72 h.
A further test has as its system HCT-116. The test can be described thus: Antiproliferative activity against human HCT-116 cells assessed as reduction in cell proliferation. The test is classed as functional, cell-based.
The next test has as its system HeLa. The experiment in a line: Cytotoxicity against human HeLa cells assessed as reduction in cell growth incubated for 48 hrs by MTT assay. The test is classed as functional, cell-based.
The next test concerns MCF7. The test can be described thus: Cytotoxicity against human MCF7 cells assessed as reduction in cell growth incubated for 5 days by MTT assay. The test is classed as functional, cell-based. Conditions: MCF7, 120 h.
A further test deals with NCI/ADR-RES. The test can be described thus: Antiproliferative activity against human NCI-ADR-RES cells assessed as inhibition of cell growth measured after 48 hrs by SRB assay. The test is classed as functional, cell-based.
Test [11] relates to HL-60. The test can be described thus: Cytotoxicity against human HL-60 cells assessed as reduction in cell growth incubated for 48 hrs by MTT assay. To be noted: HL-60, 48 h. The test is classed as functional, cell-based.
Test [12] concerns NCI-N87. The test can be described thus: Cytotoxicity against human NCI-N87 cells measured after 72 hrs by Celltiter-Glo assay. The test is classed as functional, cell-based. To be noted: NCI-N87, 72 h. On the technique in general: Cellular ATP, detected with luciferase, serves as a proxy for viable cell number.
Another test relates to P388. The experiment in a line: Cytotoxicity against mouse P388 cells assessed as reduction in cell viability by SRB assay. The test is classed as functional. To be noted: read-out: ED50 (the source's name).
For the next test, the system named is HT-29. The experiment in a line: Cytotoxicity against human HT-29 cells assessed as cell growth inhibition by MTT assay. The test is classed as functional, cell-based.
The test system of test [13] is MGC-803. The experiment in a line: Cytotoxicity against human MGC-803 assessed as inhibition of cell growth by MTT assay. The test is classed as functional, cell-based.

SMILES strings stand for the structures. In brackets after ≈: the same amount, converted by molar mass.

As to `O=c1c2ccccc2nc2n1C(O)c1cc3ccccc3nc1-2` (stereo not drawn), in the test on A549 [1], the concentration for half-maximal inhibition (IC50) is 9 µg/mL (≈ 29.9 µM).
With `O=c1c2ccc(O)cc2nc2c3[nH]c4ccccc4c3ccn12`, the IC50 amounted to 27900 nM in the test with NCI-N87 [2] and 17400 nM with PC-3.
As to `O=c1c2ccccc2nc2n1CCc1c-2[nH]c2c(Cl)c(Cl)ccc12`, the GI50 in the test on HL-60 [3] is 150 nM.
On to `COc1ccc2c3c([nH]c2c1)-c1nc2ccccc2c(=O)n1CC3`, for which the GI50 in the test with 786-0 came out at 310 nM; with A549 [4], 750 nM.
As for `O=c1c2ccccc2nc2n1CC[C@@H]2O`, in the test with MGC-803 [5], the IC50 was 94500 nM.
As to `CN1c2ccccc2C(=O)N2CCc3c([nH]c4ccc(Br)cc34)C21` (stereo not drawn), the GI50 with U-251 [6] is 300 nM; with ACHN, 400 nM.
For `O=c1c2cc(Cl)ccc2nc2n1CCc1c-2[nH]c2ccccc12`, the 50% growth inhibitory concentration (GI50) in the test with OVCAR-4 was determined as 1500 nM.
For `C[S+]([O-])c1ccc2[nH]c3c(c2c1)CCN1C(=O)c2ccccc2NC31` (stereo not drawn), in the test with DU-145 [7], the concentration for 50% growth inhibition (GI50) came to 100 nM.
For the molecule `O=C1c2ccccc2NC2c3[nH]c4ccccc4c3CCN12` (stereo not drawn), the values for the GI50 in the test on U-251 [8] and in the test on DU-145 [9] were 20 nM and 200 nM, respectively.
Take `O=c1c2ccccc2nc2n1Cc1cc3ccccc3nc1-2` [LUOTONIN A]: the half-maximal inhibitory concentration (IC50) in the test on HL-60 [10] is above 100000 nM; in the test on HCT-116 it was 51100 nM; in the test with HeLa it was 3000 nM; in the test on MCF7 it was 3000 nM; with NCI/ADR-RES it was 3000 nM.
On to `CO[C@@H]1c2c([nH]c3ccccc23)-c2nc3ccccc3c(=O)n2[C@H]1O`, for which the IC50 in the test with HL-60 [11] came out at 7820 nM; in the test with NCI-N87 [12] it was 22300 nM.
Consider `COc1cccc2c(=O)n3ccc4c5ccccc5[nH]c4c3nc12`, for which, in the test with P388, the EC50 stood at 12300 nM. Also, the 50% inhibitory concentration (IC50) in the test with HT-29 worked out at 27100 nM.
With `O=c1c2ccccc2nc2n1CC[C@@H]2O[C@@H]1O[C@H](CO)[C@@H](O)[C@H](O)[C@H]1O`, in the test on MGC-803 [13], the IC50 is 84100 nM.
